From US6881427B2, “Topical anti-inflammatory composition containing linseed and licorice extracts” (Alticor Inc., priority 2002, dated 2005)

How the values were obtained:
Assay type in all cases: cell-based, human
[1] = system: IL-1α; assay: IL-1α secretion from TESTSKIN II tissue (ELISA); settings: test materials neat, dexamethasone 100 μM
Method: (§1) The skin tissue used in this study, TESTSKIN II (Organogenesis Inc., Canton, Mass.), is constructed from human skin with anatomical structures and physiological functions that simulate actual living skin. This tissue has an upper epidermal layer with well-differentiated keratinocytes and stratum corneum and a lower dermal layer with living fibroblasts able to produce collagen matrix.
(§2) The test materials were evaluated for exposure periods of 4, 8, and 24 hours, and their toxicity was evaluated for an exposure period of 24 hours. Test materials 2, 4, 6, and 8 were used neat. […] All dilutions were made in growth media, and assays were performed in triplicate.
All supplies and handling equipment are sterilized, and techniques for maintaining sterility are used. Skin tissue is punched out using an 8 mm biopsy punch from the middle section and transferred to a well of a six-well plate containing transwell inserts and 1 mL of growth media. Tissues are transferred to a humidified 37° C. incubator supplied with 10% CO2 and incubated overnight.
Test materials to be used are dosed on a sterile dosing pad (10 μL/pad) and placed on top of tissue. Dosed tissues are returned to the incubator and incubated for a specified amount of time (e.g., 4 hours), after which the supernatants are replaced with fresh media. Collected supernatants are used for PGE2 and GM-CSF assays.
Assays are performed in triplicate, and the numbers shown correspond to averages of the triplicate treatments.
Tissues are pre-incubated with test materials for 4 hours prior to being stimulated by PMA or Histamine. Secreted IL-1α, PGE2 and GM-CSF are measured using the ELISA method.

[2] = system: PGE2; assay: PGE2 secretion from TESTSKIN II tissue (competitive ELISA); settings: after 24 hours of exposure
Method: The anti-inflammatory potential of a composition according to the present invention that includes a combination of linseed extract and licorice extract was evaluated as described herein. The release of PGE2 and GM-CSF from skin tissue provides a measure of protective potential following pre-incubation with test materials, whereas the reduction of MTT (3-[4,5-dimethylthiazol-2yl]-2,5-diphenyl-2H-tetrazolium bromide) provides an estimate of toxicity potential.
The skin tissue used in this study, TESTSKIN II (Organogenesis Inc., Canton, Mass.), is constructed from human skin with anatomical structures and physiological functions that simulate actual living skin. […]
The test materials were evaluated for exposure periods of 4, 8, and 24 hours, and their toxicity was evaluated for an exposure period of 24 hours. […]
Four controls are included: total activity, non-specific binding, maximum binding, and substrate blank. […] Following incubation, 50 μL of stop solution (trisodium phosphate solution) is added and the optical density is measured immediately at 405 nm (reference wavelength of 570-590 nm) using a microplate spectrophotometer. The amount of PGE2 present in the supernatant is determined by comparison to the calibration curve generated by the recombinant PGE2 standard. […]

[3] = system: TESTSKIN II; assay: MTT reduction toxicity assay on TESTSKIN II skin tissue; settings: MTT % survival, 24-hour exposure; PMA 10 ng/mL
Method: The release of PGE2 and GM-CSF from skin tissue provides a measure of protective potential following pre-incubation with test materials, whereas the reduction of MTT (3-[4,5-dimethylthiazol-2yl]-2,5-diphenyl-2H-tetrazolium bromide) provides an estimate of toxicity potential.
as §1, §2
All supplies and handling equipment are sterilized, and techniques for maintaining sterility are used. […]
Tissues free of test materials are incubated with 2 mg/mL of MTT solution (made up in growth media) in a humidified 37° C. incubator supplied with 10% CO2 for 2 hours. […] Spent MTT solution is read in a 96 well flat bottom plate at A540. […]

| SMILES | IL-1α secretion ([1]; 0 Hr, average of triplicate ± SD) | IL-1α secretion ([1]; 8 Hr) | IL-1α secretion ([1]; 24 Hr) | induction of PGE2 secretion by stimulus, in words [2] | toxicity to TESTSKIN II tissue, in words [3] |
| --- | --- | --- | --- | --- | --- |
| C[C@@H]1C[C@H]2[C@@H]3CCC4=CC(=O)C=C[C@]4(C)[C@@]3(F)[C@@H](O)C[C@]2(C)[C@@]1(O)C(=O)CO [Dexamethasone, dexamethasone] | 22.00 ± 9.69 | 24.45 ± 9.47 | 25.42 ± 8.94 |  |  |
| CCCCCCCCCCCCCC(=O)O[C@@H]1[C@@H](C)[C@@]2(O)[C@@H](C=C(CO)C[C@]3(O)C(=O)C(C)=C[C@@H]23)[C@@H]2C(C)(C)[C@]12OC(C)=O [PMA, phorbol myristate acetate] |  |  |  | fails to induce PGE2 secretion above the background level | mildly toxic |
